The target of assay [1] is T1, human polymorphonuclear elastase (HSE) (Homo sapiens, UniProt P08246).
T1 sequence (P08246 30-267): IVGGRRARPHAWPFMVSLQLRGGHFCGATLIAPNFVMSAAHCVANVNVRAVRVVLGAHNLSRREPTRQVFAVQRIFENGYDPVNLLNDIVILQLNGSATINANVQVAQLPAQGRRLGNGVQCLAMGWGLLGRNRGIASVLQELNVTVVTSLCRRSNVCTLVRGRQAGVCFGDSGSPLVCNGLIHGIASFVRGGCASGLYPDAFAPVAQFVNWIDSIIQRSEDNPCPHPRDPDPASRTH
Put plainly: Inhibitory effects on human polymorphonuclear elastase. Format: biochemical. Particulars: substrate Meo-Suc-Ala-Ala-Pro-Val-pNA; HEPES pH 8.0; preincubation 37° C. 20 min, incubation 5 min. As to the method:
(1) Inhibitory effects on human polymorphonuclear elastase
A mixture with 0.5 ml of 0.2 mM HEPES buffer (pH 8.0), 0.2 ml of 2.5M NaCl, 0.1 ml of 1% polyethyleneglycol 6000, 0.13 ml of distilled water, test compound dissolved in 0.01 ml of dimethylsulfoxide (DMSO) and 0.05 ml of 0.8 Unit/ml human polymorphonuclearelastase (HSE) was preincubated at 37° C. for 20 min. 5 mM of Meo-Suc-Ala-Ala-Pro-Val-pNA (DMSO solution, 0.01 ml) was then added to the above mixture and was incubated at 37° C. for 5 min. The reaction was terminated by 0.1 ml of 50% acetic acid and the p-nitroanilide (pNA) released was measured spectrophotometrically at […]. Percent inhibition of a compound was calculated by the following equation.
Inhibition (%)=1-{derlat OD(test-blank)/deltaOD(control-blank)}×100

Assay [2] concerns human polymorphonuclear elastase-induced lung hemorrhage. Put plainly: Inhibitory effects on human polymorphonuclear elastase-induced lung hemorrhage in hamster. Type of assay: in vivo, Syrian hamster. Particulars: oral, 60 min before intratracheal HSE 10 U/0.1 ml, blood in BALF; for inhibition at 500 mg/kg (%): 5 Syrian hamsters per group; for ED50: Homo sapiens, Syrian hamsters. As to the method: (2) Inhibitory effects on human polymorphonuclear elastase-induced lung hemorrhage in hamster
A test compound suspended in 0.5% Carboxymethylcellulose or 80% Polyethyleneglycol, 400 or 2% Tween 80 was administered orally to a group of 5 Syrian hamsters. At 60 min after the administration, 10 U/0.1 ml of HSE was injected intratracheally via surgically exposed trachea under pentobarbital anesthesia (60 mg/kg, i.p.) to induce lung injury. At 60 min after the injection, hamsters were bled to sacrifice and subjected to bronchoalveolar lavage with 2.5 ml of saline and recovered lavage solution (BALF). The recovered BALF (0.5 ml) was diluted by 4 times with 2% aqueous solution sodium carbonate and sonicated for 10 sec. The lavage fluid was further diluted by 2.5 times with 2% aqueous solution sodium carbonate and the amount of blood in BALF was calculated from absorbance at 414 nm using standard curve.

Molecules are shown by their SMILES. Structures can show the parent of a compound that is named as a salt.

As a reminder, the IC50 is the midpoint of a concentration-inhibition curve. Read a low IC50 as inhibition by little substance. For orientation: inhibition means the change of the read-out against control, counted positive when it falls. Higher therefore signals strong suppression. In the case of `CCC(C(=O)Oc1ccc(S(=O)(=O)n2c(C(=O)O)cc3cc(OC)c(OC)cc32)cc1C)c1ccc(N2CCCC2)cc1` (racemic) [2(42), 4-(2-carboxy-5,6-dimethoxyindol-1-ylsulfonyl)-2-methylphenyl 2RS-(4-(pyrrolidin-1-yl)phenyl)butanoic acid ester], in assay [1], the concentration for half-maximal inhibition (IC50) worked out at 13 nM. In addition, the “inhibition at 500 mg/kg (%)” value in assay [2] worked out at 67%.

Molecule `CCC(C(=O)Oc1ccc(S(=O)(=O)N2c3ccccc3CC2C(=O)O)cc1)c1ccccc1OC` (racemic) [2(62), 4-(2RS-carboxyindolin-1-ylsulfonyl)phenyl 2RS-(2-methoxyphenyl)butanoic acid ester] showed an IC50 in assay [1] of 6.8 nM.

Consider `CCC(C(=O)Oc1ccc(S(=O)(=O)n2c(C(=O)O)cc3ccccc32)cc1C)c1ccc(C)cc1` (racemic) [2(69), 4-(2-carboxyindol-1-ylsulfonyl)-2-methylphenyl 2RS-(4-methylphenyl)butanoicacid ester], for which, in assay [1], it took 11 nM to reach half-maximal inhibition (IC50). Also, the “inhibition at 500 mg/kg (%)” value in assay [2] is recorded as 83%.

With `CCC(C(=O)Oc1ccc(S(=O)(=O)NC23CC4CC(C2)CC(C(=O)O)(C4)C3)cc1)c1ccc(N2CCCC2)cc1` (racemic) [2(111), 4-(N-3-carboxyadamantan-1-ylsulfamoyl)phenyl 2RS-(4-(pyrrolidin-1-yl)phenyl)butanoic acid ester], the IC50 in assay [1] was 9.7 nM.

`CCC(C(=O)Oc1ccc(S(=O)(=O)Nc2ccccc2C(=O)NCC(=O)O)cc1)c1ccc2c(c1)OCO2` (racemic) [2(120), 4-(N-2-(N'-carboxymethylcarbamoyl)phenylsulfamoyl)phenyl 2RS-(1,3-benzodioxol-5-yl)butanoic acid ester] returned an IC50 in assay [1] of 23 nM.

Take `CCC(C(=O)Oc1ccc(S(=O)(=O)Nc2ccccc2C(=O)NCC(=O)O)cc1)c1ccc(OC)c(OC)c1` (racemic) [2(157), 4-(N-2-(N'-carboxymethylcarbamoyl)phenylsulfamoyl)phenyl 2RS-(3,4-dimethoxyphenyl)butanoic acid ester]: inhibition in assay [1] was half-maximal at 8 nM (IC50).

Consider `CCC(C(=O)Oc1ccc(S(=O)(=O)Nc2ccccc2C(=O)NCC(=O)O)cc1)c1ccc(C)cc1` (racemic) [2(173), 4-(N-2-(N'-carboxymethylcarbamoyl)phenylsulfamoyl)phenyl 2RS-(4-methylphenyl)butanoic acid ester], for which, in assay [1], half-maximal inhibition (IC50) was put at 14 nM.

Consider `CCC(C(=O)Oc1ccc(S(=O)(=O)Nc2ccccc2C(=O)NCC(=O)O)cc1)c1ccc(N(C)C)cc1` (racemic) [2(197), 4-(N-2-(N'-carboxymethylcarbamoyl)phenylsulfamoyl)phenyl 2RS-(4-(N,N-dimethylamino)phenyl)butanoic acid ester.hydrochloride], for which half-maximal inhibition in assay [1] (IC50) required 10 nM.

As to `CCC(C(=O)Oc1ccc(S(=O)(=O)N2CCOCC2)cc1)c1ccc(N2CCCC2)cc1` (racemic) [Example 1(16), 4-(morpholin-4-ylsulfonyl)phenyl 2RS-(4-(pyrrolidin-1-yl)phenyl)butanoic acid ester], in assay [1], the midpoint of inhibition, the IC50, lay at 17 nM.

`CCOC(=O)C(CN1CCOCC1)NS(=O)(=O)c1ccc(OC(=O)C(CC)c2ccc(N3CCCC3)cc2)cc1` (racemic) [Example 1(40), 4-(N-1RS-(ethoxycarbonyl)-2-(morpholin-4-yl)ethylsulfamoyl)phenyl 2RS-(4-(pyrrolidin-1-yl)phenyl)butanoic acid ester] had an IC50 in assay [1] of 19 nM.

On to `CCC(C(=O)Oc1ccc(S(=O)(=O)NCC(N)=O)cc1)c1ccc(N2CCCC2)cc1` (racemic) [Example 1(56), 4-(N-(carbamoylmethyl)sulfamoyl)phenyl 2RS-(4-(pyrrolidin-1-yl)phenyl)butanoic acid ester], for which half-maximal inhibition in assay [1] (IC50) required 14 nM.

As to `CCC(C(=O)Oc1ccc(S(=O)(=O)NCC(O)CO)cc1C)c1ccc(C)cc1` (racemic) [Example 1(68), 4-(N-2RS,3-dihydroxypropylsulfamoyl)-2-methylphenyl 2RS-(4-methylphenyl)butanoic acid ester], the “inhibition at 500 mg/kg (%)” value in assay [2] came out at 51%.

On to `CCC(C(=O)Oc1ccc(S(=O)(=O)NCCc2ccccn2)cc1)c1ccc(N2CCCC2)cc1` (racemic) [Example 1(78), 4-(N-2-(pyridin-2-yl)ethylsulfamoyl)phenyl 2RS-(4-(pyrrolidin-1-yl)phenyl)butanoic acid ester.2hydrochloride], for which the half-maximal inhibitory concentration (IC50) in assay [1] amounted to 8 nM.

On to `CCC(C(=O)Oc1ccc(S(=O)(=O)NC2CN3CCC2CC3)cc1C)c1ccc(N2CCCC2)cc1` (racemic) [Example 1(90), 4-(N-(quinuclidin-3RS-yl)sulfamoyl)-2-methylphenyl 2RS-(4-(pyrrolidin-1-yl)phenyl)butanoic acid ester], for which the “inhibition at 500 mg/kg (%)” value in assay [2] is 65%.

For the molecule `CCC(C(=O)Oc1ccc(S(=O)(=O)N2CSC[C@H]2C(=O)O)cc1)c1ccc(N2CCCC2)cc1` (stereo partly drawn) [2(77), 4-(4S-carboxyperhydrothiazol-3-ylsulfonyl)phenyl 2RS-(4-(pyrrolidin-1-yl)phenyl)butanoic acid ester.hydrochloride], in assay [1], the concentration for half-maximal inhibition (IC50) was found to be 18 nM.

`O=C(O)CNC(=O)c1ccccc1NS(=O)(=O)c1ccc(OC(=O)C2(c3ccc([N+](=O)[O-])cc3)CCC2)cc1` [2(179), 4-(N-2-(N'-carboxymethylcarbamoyl)phenylsulfamoyl)phenyl 1-(4-nitrophenyl)cyclobutanecarboxylic acid ester]: in assay [1], the IC50 was found to be 49 nM.

`CC[C@H](C(=O)Oc1ccc(S(=O)(=O)N2CCc3cc([N+](=O)[O-])ccc32)cc1C)c1ccc(N2CCCC2)cc1` [Example 1(130), 4-(5-nitroindolin-1-ylsulfonyl)-2-methylphenyl 2S-(4-(pyrrolidin-1-yl)phenyl)butanoic acid ester]: the 50% inhibitory concentration (IC50) in assay [1] came out at 22 nM.

One may read the ED50 as the midpoint of the dose-response relation. In turn, `CC[C@H](C(=O)Oc1ccc(S(=O)(=O)NCCN2CCOCC2)cc1C)c1ccc(N2CCCC2)cc1` [Example 1(139), 4-(2-(morpholin-4-yl)ethylaminosulfonyl)-2-methylphenyl 2S-(4-(pyrrolidin-1-yl)phenyl)butanoic acid ester.2hydrochloride] yielded an IC50 in assay [1] of 24 nM. This molecule had an ED50 in assay [2] of 192 mg/kg.

`CCC(C(=O)Oc1ccc(S(=O)(=O)N2CCC[C@H]2C(=O)O)cc1)c1ccc(N2CCCC2)cc1` (stereo partly drawn) [Example 2(1), 4-(2S-carboxypyrrolidin-1-ylsulfonyl)phenyl 2RS-(4-(pyrrolidin-1-yl)phenyl)butanoic acid ester.hydrochloride] showed a 50% inhibitory concentration (IC50) in assay [1] of 12 nM.

In turn, `CCc1cc(S(=O)(=O)N2CCNCC2)ccc1OC(=O)[C@@H](CC)c1ccc(N2CCCC2)cc1` [Example 2(274), 4-(piperazin-4-ylsulfonyl)-2-ethylphenyl 2S-(4-(pyrrolidin-1-yl)phenyl)butanoic acid ester.2hydrochloride] gave an IC50 in assay [1] of 12 nM. Also, in assay [2], the ED50 is 132 mg/kg.

As for `CC[C@H](C(=O)Oc1ccc(S(=O)(=O)N2CCNCC2)cc1C)c1ccc(N2CCCC2)cc1` [Example 2(276), 4-(piperazin-4-ylsulfonyl)-2-methylphenyl 2S-(4-(pyrrolidin-1-yl)phenyl)butanoic acid ester.2hydrochloride], in assay [1], it took 9.3 nM to reach half-maximal inhibition (IC50). In assay [2], this molecule showed a median effective dose (ED50) of 73 mg/kg.

In assay [1], `CCC(C(=O)Oc1ccc(S(=O)(=O)N2CCC[C@H]2C(=O)O)cc1C)c1ccc(N2CCCC2)cc1` (stereo partly drawn) [Example 2, 4-(2S-carboxypyrrolidin-1-ylsulfonyl)-2-methylphenyl 2RS-(4-(pyrrolidin-1-yl)phenyl)butanoic acid ester.hydrochloride] had a half-maximal inhibitory concentration (IC50) of 55 nM. Moreover, the “inhibition at 500 mg/kg (%)” value in assay [2] was 81%.

The values above are taken from patent US5795890A, “Sulfonamide derivatives” (ONO Pharmaceutical Co., Ltd., priority 1995, dated 1998).
